PubChem BioAssay (NCI)
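These data come from cells grown in 96-well plates and exposed to compound for 48 hours at five concentrations. The concentration for 50% growth inhibition is given as GI50. TGI marks complete inhibition of growth.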

Legend:
Assay in all cases: NCI anticancer screen, dose series, 48 h
786-0 renal = tested on: 786-0 renal
A549 NSCLC = tested on: A549 NSCLC
ACHN renal = tested on: ACHN renal
BT-549 breast = tested on: BT-549 breast
CAKI-1 renal = tested on: CAKI-1 renal
CCRF-CEM leukemia = tested on: CCRF-CEM leukemia
COLO 205 colon = tested on: COLO 205 colon
DU-145 prostate = tested on: DU-145 prostate
EKVX NSCLC = tested on: EKVX NSCLC
HCC-2998 colon = tested on: HCC-2998 colon
HCT-116 colon = tested on: HCT-116 colon
HCT-15 colon = tested on: HCT-15 colon
HL-60(TB) leukemia = tested on: HL-60(TB) leukemia
HOP-62 NSCLC = tested on: HOP-62 NSCLC
HOP-92 NSCLC = tested on: HOP-92 NSCLC
HS 578T breast = tested on: HS 578T breast
HT29 colon = tested on: HT29 colon
IGROV1 ovarian = tested on: IGROV1 ovarian
K-562 leukemia = tested on: K-562 leukemia
KM12 colon = tested on: KM12 colon
LOX IMVI melanoma = tested on: LOX IMVI melanoma
M14 melanoma = tested on: M14 melanoma
MALME-3M melanoma = tested on: MALME-3M melanoma
MCF7 breast = tested on: MCF7 breast
MDA-MB-231 breast = tested on: MDA-MB-231 breast
MDA-MB-435 = tested on: MDA-MB-435
MOLT-4 leukemia = tested on: MOLT-4 leukemia
NCI-H226 lung = tested on: NCI-H226 lung
NCI-H23 lung = tested on: NCI-H23 lung
NCI-H460 lung = tested on: NCI-H460 lung
NCI-H522 lung = tested on: NCI-H522 lung
NCI/ADR-RES ovarian = tested on: NCI/ADR-RES ovarian
OVCAR-3 ovarian = tested on: OVCAR-3 ovarian
OVCAR-4 ovarian = tested on: OVCAR-4 ovarian
OVCAR-5 ovarian = tested on: OVCAR-5 ovarian
OVCAR-8 ovarian = tested on: OVCAR-8 ovarian
PC-3 prostate = tested on: PC-3 prostate
RPMI-8226 leukemia = tested on: RPMI-8226 leukemia
RXF 393 renal = tested on: RXF 393 renal
SF-268 CNS = tested on: SF-268 CNS
SF-295 CNS = tested on: SF-295 CNS
SF-539 CNS = tested on: SF-539 CNS
SK-MEL-28 melanoma = tested on: SK-MEL-28 melanoma
SK-MEL-5 melanoma = tested on: SK-MEL-5 melanoma
SNB-19 CNS = tested on: SNB-19 CNS
SNB-75 CNS = tested on: SNB-75 CNS
SR leukemia = tested on: SR leukemia
SW-620 colon = tested on: SW-620 colon
T-47D breast = tested on: T-47D breast
TK-10 renal = tested on: TK-10 renal
U251 CNS = tested on: U251 CNS
UACC-257 melanoma = tested on: UACC-257 melanoma
UACC-62 melanoma = tested on: UACC-62 melanoma
UO-31 renal = tested on: UO-31 renal
A498 renal = tested on: A498 renal
SK-MEL-2 melanoma = tested on: SK-MEL-2 melanoma
SK-OV-3 ovarian = tested on: SK-OV-3 ovarian
SN12C renal = tested on: SN12C renal

## Cc1cc(S(=O)(=O)Nc2nnc(-c3ccco3)c(-c3ccco3)n2)c(SCc2ccccc2)cc1Cl
786-0 renal
  GI50: 38.8 µM
  TGI: > 100000 nM
A549 NSCLC
  GI50: 34.7 µM
  TGI: > 100 µM
ACHN renal
  GI50: 20.2 µM
  TGI: 41.9 µM
BT-549 breast
  GI50: 25.3 µM
  TGI: 50.2 µM
CAKI-1 renal
  GI50: 28.5 µM
  TGI: 55.8 µM
CCRF-CEM leukemia
  GI50: 23.2 µM
  TGI: 66.1 µM
COLO 205 colon
  GI50: 26.1 µM
  TGI: 56.3 µM
DU-145 prostate
  GI50: 17 µM
  TGI: 32.5 µM
EKVX NSCLC
  GI50: 17.5 µM
  TGI: 37.6 µM
HCC-2998 colon
  GI50: 20.4 µM
  TGI: 36.8 µM
HCT-116 colon
  GI50: 33.2 µM
  TGI: > 100000 nM
HCT-15 colon
  GI50: 21.1 µM
  TGI: 43.3 µM
HL-60(TB) leukemia
  GI50: 24.8 µM
  TGI: 83.1 µM
HOP-62 NSCLC
  GI50: 25.5 µM
  TGI: 53.3 µM
HOP-92 NSCLC
  GI50: 21.5 µM
  TGI: 45.4 µM
HS 578T breast
  GI50: 29.7 µM
  TGI: 64.9 µM
HT29 colon
  GI50: 23.1 µM
  TGI: 47.1 µM
IGROV1 ovarian
  GI50: 32.4 µM
  TGI: > 100 µM
K-562 leukemia
  GI50: 28.2 µM
  TGI: > 100 µM
KM12 colon
  GI50: 27.8 µM
  TGI: > 100 µM
LOX IMVI melanoma
  GI50: 24.7 µM
  TGI: 45.4 µM
M14 melanoma
  GI50: 25.8 µM
  TGI: 55.5 µM
MALME-3M melanoma
  GI50: 19.8 µM
  TGI: 43.9 µM
MCF7 breast
  GI50: 26.7 µM
  TGI: 61.9 µM
MDA-MB-231 breast
  GI50: 24.8 µM
  TGI: 47.6 µM
MDA-MB-435
  GI50: 25.4 µM
  TGI: 49.6 µM
MOLT-4 leukemia
  GI50: 17.9 µM
  TGI: 53 µM
NCI-H226 lung
  GI50: 22.4 µM
  TGI: 69.9 µM
NCI-H23 lung
  GI50: 22.8 µM
  TGI: 46.9 µM
NCI-H460 lung
  GI50: 31.6 µM
  TGI: 83.5 µM
NCI-H522 lung
  GI50: 24.8 µM
  TGI: 65.7 µM
NCI/ADR-RES ovarian
  GI50: 39.4 µM
  TGI: > 100 µM
OVCAR-3 ovarian
  GI50: 26.2 µM
  TGI: 50.9 µM
OVCAR-4 ovarian
  GI50: 22 µM
  TGI: 41.6 µM
OVCAR-5 ovarian
  GI50: 25.6 µM
  TGI: 49.8 µM
OVCAR-8 ovarian
  GI50: 26.6 µM
  TGI: 71.1 µM
PC-3 prostate
  GI50: 28 µM
  TGI: 57 µM
RPMI-8226 leukemia
  GI50: 18.4 µM
  TGI: 61.4 µM
RXF 393 renal
  GI50: 22.8 µM
  TGI: 47.6 µM
SF-268 CNS
  GI50: 20.1 µM
  TGI: 41.2 µM
SF-295 CNS
  GI50: 29.2 µM
  TGI: 83.9 µM
SF-539 CNS
  GI50: 19.9 µM
  TGI: 41.1 µM
SK-MEL-28 melanoma
  GI50: 20.7 µM
  TGI: 40.5 µM
SK-MEL-5 melanoma
  GI50: 17.5 µM
  TGI: 32.5 µM
SNB-19 CNS
  GI50: 21.7 µM
  TGI: 43.8 µM
SNB-75 CNS
  GI50: 32.1 µM
  TGI: 56.2 µM
SR leukemia
  GI50: 19.4 µM
  TGI: 40 µM
SW-620 colon
  GI50: 23 µM
  TGI: 47.2 µM
T-47D breast
  GI50: 25.2 µM
  TGI: 48.6 µM
TK-10 renal
  GI50: 26.7 µM
  TGI: 74.8 µM
U251 CNS
  GI50: 25.7 µM
  TGI: 62.2 µM
UACC-257 melanoma
  GI50: 25.9 µM
  TGI: 67.6 µM
UACC-62 melanoma
  GI50: 19.4 µM
  TGI: 37.2 µM
UO-31 renal
  GI50: 21.7 µM
  TGI: 50.4 µM

## COC(=O)/C=C1\SC(=Nc2ccc(C(F)(F)F)cc2)N(CCc2c[nH]c3ccccc23)C1=O
786-0 renal
  GI50: 1.56 µM
  TGI: 2950 nM
A498 renal
  GI50: 1500 nM
  TGI: 2980 nM
A549 NSCLC
  GI50: 2.01 µM
  TGI: 4.8 µM
ACHN renal
  GI50: 1.56 µM
  TGI: 2.9 µM
BT-549 breast
  GI50: 1.53 µM
  TGI: 3.16 µM
CCRF-CEM leukemia
  GI50: 1.95 µM
  TGI: 7.22 µM
COLO 205 colon
  GI50: 1.88 µM
  TGI: 3.65 µM
DU-145 prostate
  GI50: 1.87 µM
  TGI: 4.21 µM
EKVX NSCLC
  GI50: 1.86 µM
  TGI: 3.81 µM
HCC-2998 colon
  GI50: 1.86 µM
  TGI: 3.43 µM
HCT-116 colon
  GI50: 1.21 µM
  TGI: 2470 nM
HCT-15 colon
  GI50: 1.38 µM
  TGI: 2.95 µM
HL-60(TB) leukemia
  GI50: 1.23 µM
  TGI: 3.98 µM
HOP-92 NSCLC
  GI50: 1.58 µM
  TGI: 3.24 µM
HT29 colon
  GI50: 1.86 µM
  TGI: 4.56 µM
IGROV1 ovarian
  GI50: 1.82 µM
  TGI: 3.59 µM
K-562 leukemia
  GI50: 1.66 µM
  TGI: 6.42 µM
KM12 colon
  GI50: 1.74 µM
  TGI: 3.62 µM
LOX IMVI melanoma
  GI50: 1.49 µM
  TGI: 2.81 µM
M14 melanoma
  GI50: 1.46 µM
  TGI: 2.9 µM
MALME-3M melanoma
  GI50: 1.79 µM
  TGI: 3.3 µM
MCF7 breast
  GI50: 1.16 µM
  TGI: 4.53 µM
MDA-MB-231 breast
  GI50: 1.5 µM
  TGI: 2.87 µM
MDA-MB-435
  GI50: 1.56 µM
  TGI: 3.03 µM
MOLT-4 leukemia
  GI50: 1.22 µM
  TGI: 5.51 µM
NCI-H226 lung
  GI50: 1.87 µM
  TGI: 3.62 µM
NCI-H23 lung
  GI50: 1.76 µM
  TGI: 3.64 µM
NCI-H460 lung
  GI50: 2.04 µM
  TGI: 4.28 µM
NCI-H522 lung
  GI50: 1.71 µM
  TGI: 3.91 µM
NCI/ADR-RES ovarian
  GI50: 1.89 µM
  TGI: 4.31 µM
OVCAR-3 ovarian
  GI50: 1.5 µM
  TGI: 2.9 µM
OVCAR-4 ovarian
  GI50: 1.61 µM
  TGI: 3.05 µM
OVCAR-5 ovarian
  GI50: 1.79 µM
  TGI: 3.38 µM
OVCAR-8 ovarian
  GI50: 1.74 µM
  TGI: 4.6 µM
PC-3 prostate
  GI50: 1.62 µM
  TGI: 3.32 µM
RPMI-8226 leukemia
  GI50: 1.13 µM
  TGI: 4.3 µM
RXF 393 renal
  GI50: 1.43 µM
  TGI: 2.98 µM
SF-268 CNS
  GI50: 1.78 µM
  TGI: 3.67 µM
SF-295 CNS
  GI50: 1.57 µM
  TGI: 2.95 µM
SF-539 CNS
  GI50: 1.62 µM
  TGI: 3.02 µM
SK-MEL-2 melanoma
  GI50: 1650 nM
  TGI: 3.43 µM
SK-MEL-28 melanoma
  GI50: 1.87 µM
  TGI: 3.55 µM
SK-MEL-5 melanoma
  GI50: 1.69 µM
  TGI: 3.06 µM
SK-OV-3 ovarian
  GI50: 2050 nM
  TGI: 4.06 µM
SN12C renal
  GI50: 1690 nM
  TGI: 3.45 µM
SNB-19 CNS
  GI50: 1.78 µM
  TGI: 3.45 µM
SNB-75 CNS
  GI50: 1.21 µM
  TGI: 2.48 µM
SR leukemia
  GI50: 0.613 µM
  TGI: 9.31 µM
SW-620 colon
  GI50: 1.57 µM
  TGI: 3.29 µM
T-47D breast
  GI50: 1.19 µM
  TGI: 3.17 µM
TK-10 renal
  GI50: 2.06 µM
  TGI: 3.94 µM
U251 CNS
  GI50: 1.63 µM
  TGI: 2.99 µM
UACC-257 melanoma
  GI50: 1.67 µM
  TGI: 3.18 µM
UACC-62 melanoma
  GI50: 1.62 µM
  TGI: 3.47 µM
UO-31 renal
  GI50: 1.3 µM
  TGI: 2.56 µM
